The values that follow are results of earlier work, collected in patent US20260284033A1, “COMBINATION THERAPY WITH LP-PLA2 INHIBITOR AND A SECOND AGENT” (SciNeuro Therapeutics Inc., priority 2023, published 2026).

Series [1] relates to BBB leakage animal models.
A further series deals with AD patients. Conditions: phase 2, AD patients.

On to `CCN(CC)CCN(Cc1ccc(-c2ccc(C(F)(F)F)cc2)cc1)C(=O)Cn1c(SCc2ccc(F)cc2)nc(=O)c2c1CCC2` [darapladib], for which, in series [1], the BBB leakage result is given as “reduced BBB leakage” and the vascular dementia pathology result was “improved vascular dementia pathology”.

Take `COCCN1CCC(N(Cc2ccc(-c3ccc(C(F)(F)F)cc3)cc2)C(=O)Cn2c(SCc3cccc(F)c3F)cc(=O)c3ccccc32)CC1` [rilapladib]: in the series with AD patients, the cognitive decline entry was “slowed down cognitive decline”, the disease biomarkers entry was “improved disease biomarkers” and the tolerability entry is reported as “well tolerated”.
